Experimental data taken from US8765730B2 (Hoffmann-La Roche Inc, priority 2010, dated 2014).
Like-named read-outs stand apart in the source and are kept apart here.

Molecular target: T1, human GPBAR1 receptor (Homo sapiens, UniProt Q8TDU6)
T1 construct: expressed in transfected cells
T1 sequence (Q8TDU6 1-330): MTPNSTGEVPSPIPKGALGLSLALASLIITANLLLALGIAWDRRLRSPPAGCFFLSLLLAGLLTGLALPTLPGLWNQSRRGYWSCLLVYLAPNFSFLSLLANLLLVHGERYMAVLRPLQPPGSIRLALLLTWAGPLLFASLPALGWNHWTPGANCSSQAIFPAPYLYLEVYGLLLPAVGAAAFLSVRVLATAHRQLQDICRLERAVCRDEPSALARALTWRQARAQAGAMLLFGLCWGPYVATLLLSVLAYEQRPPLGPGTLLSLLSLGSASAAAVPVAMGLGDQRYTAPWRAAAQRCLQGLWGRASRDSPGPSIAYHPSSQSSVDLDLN
Assay: functional cAMP assay in CHO-dhfr(minus) cells expressing human GPBAR1 receptors
Type: cell-based
Settings: 30 min at 30° C.
In short: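 Agonist cAMP read-out: stable GPBAR1 CHO-dhfr− clone, 30 min compound exposure at 30° C following 30 min IBMX (1 mM) preincubation in Krebs Ringer bicarbonate. Time-resolved energy-transfer detection gives EC50; parental CHO cells serve as counter-screen.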

[1] = human EC50, functional cAMP assay
[2] = functional cAMP assay, read-out: human EC50

SMILES	EC50 [1] [nM]	EC50 [2] [nM]
Cn1cc(/C(CC(c2ccc(C(=O)NCC(F)(F)F)c(F)c2)c2ccccc2Cl)=N/O)ccc1=O (stereo not shown) [Example 234, (E)-4-(1-(2-Chlorophenyl)-3-(hydroxyimino)-3-(1-methyl-6-oxo-1,6-dihydropyridin-3-yl)propyl)-2-fluoro-N-(2,2,2-trifluoroethyl)benzamide]	380	–
Cc1ccccc1C(C/C(=N\O)c1ccc(=O)n(C)c1)c1ccc(Oc2cccc(C(=O)O)c2)cc1F (stereo not shown) [Example 235, 3-{3-Fluoro-4-[3-[(E)-hydroxyimino]-3-(1-methyl-6-oxo-1,6-dihydro-pyridin-3-yl)-1-o-tolyl-propyl]-phenoxy}-benzoic acid]	43	–
Cc1ccccc1C(C/C(=N\O)c1ccc(=O)n(C)c1)c1ccc(-c2ccccc2C(=O)O)cc1F (stereo not shown) [Example 236, 3′-Fluoro-4′-[3-[(E)-hydroxyimino]-3-(1-methyl-6-oxo-1,6-dihydro-pyridin-3-yl)-1-o-tolyl-propyl]-biphenyl-2-carboxylic acid]	1200	–
Cn1cc(/C(CC(c2ccc(Br)cc2)c2ccc(Cl)cc2F)=N/O)ccc1=O (stereo not shown) [Example 237, 5-{3-(4-Bromo-phenyl)-3-(4-chloro-2-fluoro-phenyl)-1-[(E)-hydroxyimino]-propyl}-1-methyl-1H-pyridin-2-one]	25	–
Cn1cc(/C(CC(c2ccc(-c3ccc(C(=O)O)cc3)cc2)c2ccc(Cl)cc2F)=N/O)ccc1=O (stereo not shown) [Example 238, 4′-[1-(4-Chloro-2-fluoro-phenyl)-3-[(E)-hydroxyimino]-3-(1-methyl-6-oxo-1,6-dihydro-pyridin-3-yl)-propyl]-biphenyl-4-carboxylic acid]	23	–
Cn1cc(/C(CC(c2ccc(Br)cc2)c2ccccc2F)=N/O)ccc1=O (stereo not shown) [Example 243, (E)-5-(3-(4-Bromophenyl)-3-(2-fluorophenyl)-1-(hydroxyimino)propyl)-1-methylpyridin-2(1H)-one]	20	–
Cn1cc(/C(CC(c2ccc(-c3ccc(C(=O)O)cc3)cc2)c2ccccc2F)=N/O)ccc1=O (stereo not shown) [Example 244, (E)-4′-(1-(2-Fluorophenyl)-3-(hydroxyimino)-3-(1-methyl-6-oxo-1,6-dihydropyridin-3-yl)propyl)biphenyl-4-carboxylic acid]	260	–
CCNC(=O)c1ccc(C(C/C(=N\O)c2ccc(=O)n(C)c2)c2ccccc2Cl)cc1F (stereo not shown) [Example 245, (E)-4-(1-(2-Chlorophenyl)-3-(hydroxyimino)-3-(1-methyl-6-oxo-1,6-dihydropyridin-3-yl)propyl)-N-ethyl-2-fluorobenzamide]	250	–
CC(=O)NCCNC(=O)c1ccc(C(C/C(=N\O)c2ccc(=O)n(C)c2)c2ccccc2C)cc1 (stereo not shown) [Example 246, (E)-N-(2-Acetamidoethyl)-4-(3-(hydroxyimino)-3-(1-methyl-6-oxo-1,6-dihydropyridin-3-yl)-1-o-tolylpropyl)benzamide]	2180	–
Cc1ccccc1C(C/C(=N\O)c1ccc(=O)n(C)c1)c1ccc(C(=O)NC[C@H](C)O)cc1 (stereo partly drawn) [Example 247, 4-((E)-3-(Hydroxyimino)-3-(1-methyl-6-oxo-1,6-dihydropyridin-3-yl)-1-o-tolylpropyl)-N-((S)-2-hydroxypropyl)benzamide]	220	–
Cc1ccccc1C(C/C(=N\O)c1ccc(=O)n(C)c1)c1ccc(C(=O)NC[C@@H](C)O)cc1 (stereo partly drawn) [Example 248, 4-((E)-3-(Hydroxyimino)-3-(1-methyl-6-oxo-1,6-dihydropyridin-3-yl)-1-o-tolylpropyl)-N-((R)-2-hydroxypropyl)benzamide]	70	–
Cn1cc(/C(CC(c2ccc(S(C)(=O)=O)cc2)c2ccccc2Cl)=N/O)ccc1=O (stereo not shown) [Example 249, (E)-5-(3-(2-Chlorophenyl)-1-(hydroxyimino)-3-(4-(methylsulfonyl)phenyl)propyl)-1-methylpyridin-2(1H)-one]	30	–
Cn1cc(/C(CC(c2ccc(=O)n(C)c2)c2ccccc2Cl)=N/O)ccc1=O (stereo not shown) [Example 250, (E)-5,5′-(1-(2-Chlorophenyl)-3-(hydroxyimino)propane-1,3-diyl)bis(1-methylpyridin-2(1H)-one)]	1350	–
Cc1cc(Cl)ccc1C(C/C(=N\O)c1ccc(=O)n(C)c1)c1ccc(-c2ccc(C#N)cc2)cc1 (stereo not shown) [Example 251, (E)-4′-(1-(4-Chloro-2-methylphenyl)-3-(hydroxyimino)-3-(1-methyl-6-oxo-1,6-dihydropyridin-3-yl)propyl)biphenyl-4-carbonitrile]	480	–
Cc1ccccc1[C@H](C/C(=N\O)c1cc(Br)c(=O)n(C)c1)c1ccc(Br)cc1 [Example 252, 3-Bromo-5-{(R)-3-(4-bromo-phenyl)-1-[(E)-hydroxyimino]-3-o-tolyl-propyl}-1-methyl-1H-pyridin-2-one]	–	10
COC(=O)CNC(=O)c1ccc(-c2ccc(C(C/C(=N\O)c3ccc(=O)n(C)c3)c3ccc(F)cc3C)cc2)cc1 (stereo not shown) [Example 257, ({4′-[1-(4-Fluoro-2-methyl-phenyl)-3-[(E)-hydroxyimino]-3-(1-methyl-6-oxo-1,6-dihydro-pyridin-3-yl)-propyl]-biphenyl-4-carbonyl}-amino)-acetic acid methyl ester]	20	–

SMILES	EC50 [1] [nM]	EC50 [2] [nM]
Cc1cc(F)ccc1C(C/C(=N\O)c1ccc(=O)n(C)c1)c1ccc(-c2ccc(C(=O)NCC(=O)O)cc2)cc1 (stereo not shown) [Example 258, ({4′-[1-(4-Fluoro-2-methyl-phenyl)-3-[(E)-hydroxyimino]-3-(1-methyl-6-oxo-1,6-dihydro-pyridin-3-yl)-propyl]-biphenyl-4-carbonyl}-amino)-acetic acid]	10	–
Cc1cc(F)ccc1C(C/C(=N\O)c1ccc(=O)n(C)c1)c1ccc(-c2ccc(N)cc2)cc1 (stereo not shown) [Example 259, 5-{3-(4′-Amino-biphenyl-4-yl)-3-(4-fluoro-2-methyl-phenyl)-1-[(E)-hydroxyimino]-propyl}-1-methyl-1H-pyridin-2-one]	50	–
Cc1cc(F)ccc1C(C/C(=N\O)c1ccc(=O)n(C)c1)c1ccc(-c2ccc(-c3nnn[nH]3)cc2)cc1 (stereo not shown) [Example 260, 5-{3-(4-Fluoro-2-methyl-phenyl)-1-[(E)-hydroxyimino]-3-[4′-(1H-tetrazol-5-yl)-biphenyl-4-yl]-propyl}-1-methyl-1H-pyridin-2-one]	40	–
Cc1ccccc1[C@H](C/C(Cc1ccncc1)=N\O)c1ccc(Br)cc1 [Example 261, (E,R)-4-(4-bromophenyl)-1-(pyridin-4-yl)-4-o-tolylbutan-2-one oxime]	28	–
Cc1ccccc1[C@H](C/C(Cc1ccncc1)=N/O)c1ccc(Br)cc1 [Example 262, (Z,R)-4-(4-bromophenyl)-1-(pyridin-4-yl)-4-o-tolylbutan-2-one oxime]	278	–
Cc1ccccc1[C@H](C/C(Cc1ccccn1)=N\O)c1ccc(Br)cc1 [Example 263, (E,R)-4-(4-bromophenyl)-1-(pyridin-2-yl)-4-o-tolylbutan-2-one oxime]	3210	–
Cc1cc(/C(C[C@H](c2ccc(N3CCOCC3)cc2)c2ccccc2C)=N/O)ccn1 [Example 264, (E,R)-1-(2-Methyl-pyridin-4-yl)-3-(4-morpholin-4-yl-phenyl)-3-o-tolyl-propan-1-one oxime]	2	–
CCOC(=O)C1CCN(c2ccc([C@@H](C/C(=N\O)c3ccnc(C)c3)c3ccccc3C)cc2)CC1 [Example 265, 1-{4-[(R)-3-[(E)-Hydroxyimino]-3-(2-methyl-pyridin-4-yl)-1-o-tolyl-propyl]-phenyl}-piperidine-4-carboxylic acid ethyl ester]	12	–
COCCN(C)c1ccc([C@@H](C/C(=N\O)c2ccnc(C)c2)c2ccccc2C)cc1 [Example 267, (E,R)-3-{4-[(2-Methoxy-ethyl)-methyl-amino]-phenyl}-1-(2-methyl-pyridin-4-yl)-3-o-tolyl-propan-1-one oxime]	18	–
Cc1cc(/C(C[C@H](c2ccc(N(C)CCO)cc2)c2ccccc2C)=N/O)ccn1 [Example 268, (E,R)-3-{4-[(2-Hydroxy-ethyl)-methyl-amino]-phenyl}-1-(2-methyl-pyridin-4-yl)-3-o-tolyl-propan-1-one oxime]	13	–
Cc1cc(/C(C[C@H](c2ccc(N3CCC(CO)CC3)cc2)c2ccccc2C)=N/O)ccn1 [Example 269, (E,R)-3-[4-(4-Hydroxymethyl-piperidin-1-yl)-phenyl]-1-(2-methyl-pyridin-4-yl)-3-o-tolyl-propan-1-one oxime]	2	–
COC1CN(c2ccc([C@@H](C/C(=N\O)c3ccnc(C)c3)c3ccccc3C)cc2)C1 [Example 270, (E,R)-3-[4-(3-Methoxy-azetidin-1-yl)-phenyl]-1-(2-methyl-pyridin-4-yl)-3-o-tolyl-propan-1-one oxime]	–	5
Cc1cc(/C(C[C@H](c2ccc(N3CCS(=O)(=O)CC3)cc2)c2ccccc2C)=N/O)ccn1 [Example 271, (E,R)-3-[4-(1,1-Dioxo-1λ6-thiomorpholin-4-yl)-phenyl]-1-(2-methyl-pyridin-4-yl)-3-o-tolyl-propan-1-one oxime]	11	–
Cc1cc(/C(C[C@H](c2ccc(C(=O)NCCO)cc2)c2ccccc2C)=N/O)ccn1 [Example 273, N-(2-Hydroxy-ethyl)-4-[(R)-3-[(E)-hydroxyimino]-3-(2-methyl-pyridin-4-yl)-1-o-tolyl-propyl]-benzamide]	–	31
Cc1cc(/C(C[C@H](c2ccc(C(=O)N(C)CCO)cc2)c2ccccc2C)=N/O)ccn1 [Example 274, N-(2-Hydroxy-ethyl)-4-[(R)-3-[(E)-hydroxyimino]-3-(2-methyl-pyridin-4-yl)-1-o-tolyl-propyl]-N-methyl-benzamide]	80	–
